Measurements from PubChem BioAssay AID1963873 (Molecular Pharmacology Branch, DTP, NCI, 2024).

System: 276233-004-R-J1-PDC KRAS spheroids with HUVEC/MSC, viability
Test: Anticancer human tumor 276233-004-R-J1-PDC patient-derived colon adenocarcinoma cell line growth inhibition [KRAS2]
Settings: for IC50: curve of first compound; for viability, T/C: stronger effect = lower value
Summary of the method: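 Combination screen of spheroid viability in tumor-cell co-cultures with endothelial (HUVEC) and mesenchymal stem cell stroma. Each agent was tested in half-log dilutions, topping at clinical Cmax or at 10 microM without a known Cmax.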

[1] = second compound 0.1 µM, first compound 0.0001 µM
[2] = second compound 0.1 µM, first compound 0.000316 µM
[3] = second compound 0.1 µM, first compound 0.001 µM
[4] = second compound 0.1 µM, first compound 0.00316 µM
[5] = second compound 0.1 µM, first compound 0.01 µM
[6] = second compound 0.1 µM, first compound 0.0316 µM
[7] = second compound 0.316 µM, first compound 0.0001 µM
[8] = second compound 0.316 µM, first compound 0.000316 µM
[9] = second compound 0.316 µM, first compound 0.001 µM
[10] = second compound 0.316 µM, first compound 0.00316 µM
[11] = second compound 0.316 µM, first compound 0.01 µM
[12] = second compound 0.316 µM, first compound 0.0316 µM
[13] = second compound 1 µM, first compound 0.0001 µM
[14] = second compound 1 µM, first compound 0.000316 µM
[15] = second compound 1 µM, first compound 0.001 µM
[16] = second compound 1 µM, first compound 0.00316 µM
[17] = second compound 1 µM, first compound 0.01 µM
[18] = second compound 1 µM, first compound 0.0316 µM
[19] = second compound 3.16 µM, first compound 0.0001 µM
[20] = second compound 3.16 µM, first compound 0.000316 µM
[21] = second compound 3.16 µM, first compound 0.001 µM
[22] = second compound 3.16 µM, first compound 0.00316 µM
[23] = second compound 3.16 µM, first compound 0.01 µM
[24] = second compound 3.16 µM, first compound 0.0316 µM
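Also: cells exposed to agents for seven days before viability read.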
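For viability, T/C in this document: 100% = DMSO vehicle control wells and lower values mean fewer viable cells.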

SMILES	IC50 (second compound 0.1 µM) [nM]	IC50 (second compound 0.316 µM) [nM]	IC50 (second compound 1 µM) [nM]	IC50 (second compound 3.16 µM) [nM]	viability, T/C [1] [%]	viability, T/C [2] [%]	viability, T/C [3] [%]	viability, T/C [4] [%]	viability, T/C [5] [%]	viability, T/C [6] [%]	viability, T/C [7] [%]	viability, T/C [8] [%]	viability, T/C [9] [%]	viability, T/C [10] [%]	viability, T/C [11] [%]	viability, T/C [12] [%]	viability, T/C [13] [%]	viability, T/C [14] [%]	viability, T/C [15] [%]	viability, T/C [16] [%]	also measured
CC(=O)Nc1cccc(-n2c(=O)n(C3CC3)c(=O)c3c(Nc4ccc(I)cc4F)n(C)c(=O)c(C)c32)c1 + C=CC(=O)N1CCN(c2nc(OCC3CCCN3C)nc3c2CCN(c2cccc4cccc(C)c24)C3)CC1CC#N	9.05	4.73	2.49	0.141	82.2	86.3	72.8	63.1	50.4	22.6	76.1	83.7	61.6	64.7	31.5	10	93.3	95.9	60.6	47	IC50 (second compound 0.0316 µM): 7.53 nM; viability, T/C (second compound 0.0316 µM, first compound 0.0001 µM): 79.5%; viability, T/C (second compound 0.0316 µM, first compound 0.000316 µM): 92.4%; viability, T/C (second compound 0.0316 µM, first compound 0.001 µM): 81.2%; viability, T/C (second compound 0.0316 µM, first compound 0.00316 µM): 66.9%; viability, T/C (second compound 0.0316 µM, first compound 0.01 µM): 44.9%; viability, T/C (second compound 0.0316 µM, first compound 0.0316 µM): 16.8%; viability, T/C [17]: 25.4%; viability, T/C [18]: 7%; viability, T/C [19]: 57.5%; viability, T/C [20]: 32.3%; viability, T/C [21]: 16.7%; viability, T/C [22]: 14.7%; viability, T/C [23]: 4.17%; viability, T/C [24]: 3.27%
CC(=O)Nc1cccc(-n2c(=O)n(C3CC3)c(=O)c3c(Nc4ccc(I)cc4F)n(C)c(=O)c(C)c32)c1 + CNCc1ccccc1-c1csc(C(C)Nc2nc(C)nc3cc(OC)c(OC)cc23)c1	5.93	4.86	1.42	< 0.1	97.3	77.5	90.5	59.2	40.1	15.5	93.5	82.1	83.7	57	35.2	17.3	69.4	56.5	61.1	27.6	IC50 (second compound 10 µM): < 0.1 nM; viability, T/C [17]: 23.1%; viability, T/C [18]: 9.49%; viability, T/C [19]: 5.56%; viability, T/C [20]: 0.89%; viability, T/C [21]: 3.86%; viability, T/C [22]: 1.97%; viability, T/C [23]: 0.56%; viability, T/C [24]: 0.49%; viability, T/C (second compound 10 µM, first compound 0.0001 µM): 0.21%; viability, T/C (second compound 10 µM, first compound 0.000316 µM): 2.92%; viability, T/C (second compound 10 µM, first compound 0.001 µM): 4.6%; viability, T/C (second compound 10 µM, first compound 0.00316 µM): 3.3%; viability, T/C (second compound 10 µM, first compound 0.01 µM): 0.22%; viability, T/C (second compound 10 µM, first compound 0.0316 µM): 3.97%
